# Patent US10100198B2, “Application of reduced dyes in imaging” (LI-COR, Inc., priority 2011, dated 2018)
# “And” between values parts separate entries of the source, which are not always exact repeats. Equal values may be shown once.
# What was measured:
# HRP = target: T1, HRP (Armoracia rusticana, UniProt P00433); assay: 800 HRP substrate test of DIR780F2-P, with and without enzyme, varied pH and Triton X-100; format: biochemical, horseradish; conditions: two hours at ambient temperature
# T1 sequence (P00433 31-338): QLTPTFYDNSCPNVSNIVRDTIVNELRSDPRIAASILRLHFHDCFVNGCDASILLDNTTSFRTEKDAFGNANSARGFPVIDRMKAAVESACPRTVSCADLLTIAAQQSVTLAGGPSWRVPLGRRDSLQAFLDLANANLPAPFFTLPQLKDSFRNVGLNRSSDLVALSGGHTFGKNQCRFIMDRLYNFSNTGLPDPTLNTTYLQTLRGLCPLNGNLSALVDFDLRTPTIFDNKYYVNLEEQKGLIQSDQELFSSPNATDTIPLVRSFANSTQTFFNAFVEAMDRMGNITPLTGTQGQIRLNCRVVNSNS
# Description: Their efficacies as 800 HRP substrates have been tested in the ELISA format.
# [1] = Water solubility of reduced dyes; format: physicochemical
# [2] = Cell permeability of reduced dyes; format: in vitro ADME
# β actin in A431 lysate = assay: Western blot detection with chemifluorescent substrates, A431 lysate probed with mouse anti-β actin and HRP goat anti-mouse antibodies; set-up: species or system Human
# Description: Use of H-IR780F2 and H-IRDye® 800CW for blot imaging was compared to a commercially-available 680 HRP ELISA substrate (see FIG. 15). 4-12% Bis-Tris gels were loaded with 2-fold, 7-point serial dilutions of A431 lysate (high conc.=[…]), electrophoresed, transferred to Odyssey Nitrocellulose, blocked with SeaBlock Blocking Buffer (with ProClin preservative). The blots were probed with mouse anti-β actin antibodies, followed by HRP goat anti-mouse antibodies (FIG. 15, A-D) or dye-conjugated goat anti-mouse antibodies (FIG. 15, E-F). Blots probed with HRP goat anti-mouse antibodies were incubated for 5 min with chemifluorescent substrates in buffer containing hydrogen peroxide. H-IRDye® 800CW and H-IR780F2 were tested at 10 μM with 50-200 μM H2O2. HRP 680 ELISA substrate was used according to published protocols (i.e., LI-COR product no. 926-34300).
# The basic workflow remains unchanged and therefore, the chemifluorescent substrate based analysis is amenable to other methods of protein analysis, such as ELISAs and protein arrays.
# [3] = test system: ROS generation in RAW264.7 macrophages; assay: Imaging LPS-induced ROS generation in RAW264.7 macrophages by fluorescence microscope; format: cell-based, mouse; conditions: RAW264.7 cells, 5 μM hydrocyanines, 30 min
# [4] = UV/vis absorption and emission; format: physicochemical; conditions: for Extinction Coefficient: in M-1·cm-1 (unit assumed)
# Description: Compound 1 (80 mg), 3-(4-carboxybutyl)phenylboronic acid (40 mg), and cesium carbonate (20 mg) are stirred into 1:1 water:ethanol (10 ml) under nitrogen at room temperature. Tetrakis(triphenylphosphine)palladium(0) (10 mg) is added to the reaction mixture. The mixture was refluxed for 4 hours, and the solvent and volatile compounds are evaporated under vacuum. The crude product is purified by flash chromatography on reverse-phase C18-functionalized silica by eluting with a 1:4 acetonitrile:water mixture. The purified product 3 has UV/vis absorption max of λMeOH=680 nm, ε=229,000; λPBS=676 nm, ε=239,000.
# Compound 7 (80 mg), 3-(2-carboxyethyl)phenylboronic acid (40 mg), and cesium carbonate (20 mg) were stirred into water (20 mL) under nitrogen at room temperature. Tetrakis(triphenylphosphine)palladium (0) (10 mg) were added to the reaction mixture. The mixture was refluxed for 4 h, and the solvent and volatile compounds then were evaporated under vacuum. The crude product was purified by flash chromatography on reverse-phase silica with an acetonitrile/water mixture as the eluent. The purified compound had λMeOH=680 nm, λPBS=672 nm, ε=160,000.
# [5] = target: T2, goat anti-mouse HRP-labeled antibody (GAM-HRP) (Armoracia rusticana, UniProt P00433); assay: H-IR 780 / D-IR 780 as HRP substrate with HRP-labeled antibody in 96-well plate; format: biochemical, horseradish; conditions: 10 μM substrate, HRP 800 Assay Buffer pH 3.0, 10 minutes ambient temperature, Odyssey 800 nm channel
# T2 sequence (P00433 31-338 limits assumed): T1 sequence (P00433 31-338)
# Description: Reduced hydrocyanine dyes (H- or D-versions) are nonfluorescent, but turn fluorescent upon oxidation. This activation property was exploited to utilize the reduced hydrocyanine dyes as horseradish peroxidase (HRP) substrates. In certain embodiments of an enzymatic assay, the hydrocyanines can be oxidized by HRP using hydrogen peroxide as the oxidizing agent, yielding a fluorescent signal. In some preferred embodiments, this fluorescent signal's wavelength can range from 530-900 nm depending on the structure of the dye.
# HRP 800 Assay Buffer: The HRP 800 Assay Buffer contains 60 μM Hydrogen Peroxide, 0.2 μg/mL Acetanilide, 0.02% Triton X−100, in 100 mM Citrate Buffer, pH 3.0.
# H-IR 780 Substrate solution: 10 μM H-IR 780 in the HRP 800 Assay Buffer.
# D-IR 780 Substrate solution: 10 μM D-IR 780 in the HRP 800 Assay Buffer.
# The utility of the H-IR 780 and D-IR 780 as a HRP substrate was tested by reaction of the dye with an enzyme-labeled antibody. The substrate, when oxidized by HRP and hydrogen peroxide, yields a fluorescent signal at approximately 800 nm in the NIR. […] Wells B12, C12 and D12 received 10 μL of PBS buffer (pH 7.2) and were used as a control to measure the background fluorescence. […]
structure (smiles),measurement,setting,value
[2H]C1(C=CC2=C(c3cccc(F)c3F)C(=CC=C3N(CCC)c4ccccc4C3(C)C)CCC2)N(CCC)c2ccccc2C1(C)C (stereo not drawn) [DIR780F2-P],+Enzyme signal,"HRP; pH 5, Triton X-100 0.01%",111403 and 107251 and 95434 and 93017
same,Mean Background,"HRP; pH 5, Triton X-100 0.01%",17016
same,Mean Signal,"HRP; pH 5, Triton X-100 0.01%",101776
same,Signal-Background,"HRP; pH 5, Triton X-100 0.01%",84761
same,−Enzyme signal,"HRP; pH 5, Triton X-100 0.01%",14729 and 17889 and 16731 and 18713
same,+Enzyme signal,"HRP; pH 5, Triton X-100 0.05%",110308 and 116984 and 91720 and 95384
same,Mean Background,"HRP; pH 5, Triton X-100 0.05%",16011
same,Mean Signal,"HRP; pH 5, Triton X-100 0.05%",103599
same,Signal-Background,"HRP; pH 5, Triton X-100 0.05%",87588
same,−Enzyme signal,"HRP; pH 5, Triton X-100 0.05%",15096 and 16995 and 15697 and 16257
same,+Enzyme signal,"HRP; pH 5, Triton X-100 0.1%",86168 and 78778 and 79940 and 81063
same,Mean Background,"HRP; pH 5, Triton X-100 0.1%",14716
same,Mean Signal,"HRP; pH 5, Triton X-100 0.1%",81487
same,Signal-Background,"HRP; pH 5, Triton X-100 0.1%",66771
same,−Enzyme signal,"HRP; pH 5, Triton X-100 0.1%",14612 and 15268 and 14653 and 14330
same,+Enzyme signal,"HRP; pH 6, Triton X-100 0.01%",65943 and 71002 and 70952 and 72922
same,Mean Background,"HRP; pH 6, Triton X-100 0.01%",13218
same,Mean Signal,"HRP; pH 6, Triton X-100 0.01%",70205
same,Signal-Background,"HRP; pH 6, Triton X-100 0.01%",56987
same,−Enzyme signal,"HRP; pH 6, Triton X-100 0.01%",12646 and 15381 and 12242 and 12600
same,+Enzyme signal,"HRP; pH 6, Triton X-100 0.05%",72420 and 71667 and 65401 and 73540
same,Mean Background,"HRP; pH 6, Triton X-100 0.05%",15498
same,Mean Signal,"HRP; pH 6, Triton X-100 0.05%",70757
same,Signal-Background,"HRP; pH 6, Triton X-100 0.05%",55259
same,−Enzyme signal,"HRP; pH 6, Triton X-100 0.05%",16006 and 17026 and 14644 and 14316
same,+Enzyme signal,"HRP; pH 6, Triton X-100 0.1%",73669 and 63411 and 72029 and 67718
same,Mean Background,"HRP; pH 6, Triton X-100 0.1%",17956
same,Mean Signal,"HRP; pH 6, Triton X-100 0.1%",69207
same,Signal-Background,"HRP; pH 6, Triton X-100 0.1%",51251
same,−Enzyme signal,"HRP; pH 6, Triton X-100 0.1%",21194 and 15983 and 19749 and 14897
CC1(C)\C(=C/C=C(Br)/C=C/C2N(CCCCCCO)c3ccc4ccccc4c3C2(C)C)N(CCCCCCO)c2ccc3ccccc3c21 (stereo not drawn) [H-IR680DIOL],water solubility,[1],improved water solubility
same,cell permeability,[2],cell permeable
CCCN1/C(=C/C=C2\CCCC(/C=C/C3N(CCC)c4ccccc4C3(C)C)=C2c2cccc(F)c2F)C(C)(C)c2ccccc21 (stereo not drawn) [H-IR780F2],"Western blot signal, background and linearity","β actin in A431 lysate; 10 μM substrate, 50-200 μM H2O2, 5 min incubation",good signal with high linearity for lower signals and moderate linearity for higher signals
same,Lower Limit of Detection (LLD),β actin in A431 lysate; Western blots,1.5 ng
same,sensitivity compared to chemiluminescent detection (luminol-based reagent system),β actin in A431 lysate; Western blots,32 fold
same,sensitivity compared to fluorescent dye-conjugated secondary antibody detection,β actin in A431 lysate; Western blots,16 fold
same,fluorescent intensity in LPS treated cells compared to untreated cells,[3],increased fluorescent intensity in the LPS treated cells compared to the untreated cells
"CC1(C)C(/C=C/C(=C/C=C2/N(CCCS(=O)(=O)[O-])c3ccc(S(=O)(=O)[O-])cc3C2(C)C)c2cccc(CCC(=O)O)c2)=Nc2c1cc(Cl)c[n+]2CCCS(=O)(=O)[O-].[Na+].[Na+] [Compound 8, Sodium (E)-2-((2Z,4E)-3-(3-(2-Carboxyethyl)phenyl)-5-(5-chloro-3,3-dimethyl-7-(3-sulfonatopropyl)-3H-pyrrolo[2,3-b]pyridin-7-ium-2-yl)penta-2,4-dienylidene)-3,3-dimethyl-1-(3-sulfonatopropyl)indoline-5-sulfonate]",Max. Abs.,[4]; MeOH,680 nm
same,Max. Emis.,[4]; MeOH,694 nm
same,Extinction Coefficient,[4]; MeOH,"170,000"
same,Max. Abs.,[4]; PBS,672 nm
same,Max. Emis.,[4]; PBS,694 nm
same,Extinction Coefficient,[4]; PBS,"160,000"
"CC1(C)C(/C=C/C(=C/C=C2/N(CCCS(=O)(=O)[O-])c3ccc4c(S(=O)(=O)[O-])cc(S(=O)(=O)[O-])cc4c3C2(C)C)c2cccc(CCCCC(=O)O)c2)=[N+](CCCS(=O)(=O)[O-])c2ccc3c(S(=O)(=O)[O-])cc(S(=O)(=O)[O-])cc3c21.[Na+].[Na+].[Na+].[Na+].[Na+] [Compound 3, Sodium 2-((1E,3Z,5E)-3-(3-(4-Carboxybutyl)phenyl)-5-(1,1-dimethyl-6,8-disulfonato-3-(3-sulfonatopropyl)-1H-benzo[e]indol-2(3H)-ylidene)penta-1,3-dienyl)-1,1-dimethyl-3-(3-sulfonatopropyl)-1H-benzo[e]indolium-6,8-disulfonate]",Max. Abs.,[4]; MeOH,680 nm
same,Extinction Coefficient,[4]; MeOH,"229,000"
same,Max. Abs.,[4]; PBS,676 nm
same,Extinction Coefficient,[4]; PBS,"239,000"
CCCN1/C(=C/C=C/C2N(CCC)c3ccccc3C2(C)C)C(C)(C)c2ccccc21 (stereo not drawn) [H-Cy3],fluorescent intensity in LPS treated cells compared to untreated cells,[3],increased fluorescent intensity in the LPS treated cells compared to the untreated cells
"CC1(C)\C(=C/C=C(Br)/C=C/C2N(CCCCCCO)c3ccccc3C2(C)C)N(CCCCCCO)c2ccccc21 (stereo not drawn) [H-IR650DIOL, 6-((E)-2-((2Z,4E)-3-bromo-5-(1-(6-hydroxyhexyl)-3,3-dimethylindolin-2-yl)penta-2,4-dien-1-ylidene)-3,3-dimethylindolin-1-yl)hexan-1-ol]",water solubility,[1],improved water solubility
same,cell permeability,[2],cell permeable
CCCN1/C(=C/C=C2\CCCC(/C=C/C3N(CCC)c4ccccc4C3(C)C)=C2Cl)C(C)(C)c2ccccc21 (stereo not drawn) [H-IR 780],fluorescence signal at approximately 800 nm versus GAM-HRP concentration,[5],intensity of the fluorescence signal increased with increasing concentration of GAM-HRP
